Usually IC50 stands for the concentration that inhibits the measured activity by half. Low readings indicate greater potency in that assay, high ones weaker potency in that assay.

Common to all, as to assay type: cell-based
The target in assay [1] is T1, human TLR7 (Homo sapiens, UniProt Q9NYK1).
T1 construct: host or cells: HEK-Blue cells (HEK293-derived reporter line)
T1 sequence (Q9NYK1 27-1049): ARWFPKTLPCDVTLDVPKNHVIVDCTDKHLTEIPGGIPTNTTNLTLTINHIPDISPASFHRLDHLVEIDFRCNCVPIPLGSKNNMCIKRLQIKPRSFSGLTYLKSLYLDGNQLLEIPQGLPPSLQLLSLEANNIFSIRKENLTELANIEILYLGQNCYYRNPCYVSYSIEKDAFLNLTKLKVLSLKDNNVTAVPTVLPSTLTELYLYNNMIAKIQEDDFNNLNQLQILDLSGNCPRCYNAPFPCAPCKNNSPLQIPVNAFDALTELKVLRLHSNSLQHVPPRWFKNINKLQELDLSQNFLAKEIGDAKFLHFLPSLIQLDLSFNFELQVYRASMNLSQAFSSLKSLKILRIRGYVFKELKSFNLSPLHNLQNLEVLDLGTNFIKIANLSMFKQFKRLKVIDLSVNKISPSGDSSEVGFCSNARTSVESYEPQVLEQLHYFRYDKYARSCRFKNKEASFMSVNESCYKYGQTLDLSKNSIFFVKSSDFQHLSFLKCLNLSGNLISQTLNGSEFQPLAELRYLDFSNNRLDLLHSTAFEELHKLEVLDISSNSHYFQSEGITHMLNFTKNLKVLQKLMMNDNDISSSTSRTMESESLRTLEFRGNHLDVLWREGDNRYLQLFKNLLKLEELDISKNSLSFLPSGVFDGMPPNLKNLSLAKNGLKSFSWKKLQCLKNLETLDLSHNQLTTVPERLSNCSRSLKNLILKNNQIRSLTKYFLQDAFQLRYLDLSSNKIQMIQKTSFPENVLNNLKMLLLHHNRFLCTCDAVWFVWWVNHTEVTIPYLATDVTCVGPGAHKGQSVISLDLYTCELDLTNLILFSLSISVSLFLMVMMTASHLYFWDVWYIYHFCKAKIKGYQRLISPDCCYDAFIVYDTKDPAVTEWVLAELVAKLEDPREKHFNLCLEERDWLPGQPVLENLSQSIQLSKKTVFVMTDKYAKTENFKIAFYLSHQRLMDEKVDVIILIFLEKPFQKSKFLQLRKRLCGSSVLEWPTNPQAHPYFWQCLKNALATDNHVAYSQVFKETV
The experiment in a line: TLR7 inhibition reporter assay (HEK-Blue cells, SEAP reporter, gardiquimod stimulation). Particulars: HEK-Blue cells overexpressing human TLR7, SEAP reporter, gardiquimod 7.5 μM. In a few lines: (§1)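 Agonists (final): TLR7 gardiquimod 7.5 μM; TLR8 R848 15.9 μM; TLR9 ODN2006 5 nM. HEK-Blue reporter cells, 30 min RT compound pre-incubation, 0.05 nM–50 μM dose range, 22 h at 37 °C, colorimetric SEAP detection medium. % inhibition relative to agonist+DMSO and known-inhibitor wells.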
(In general: Reporter assays use an easily measured gene product as a stand-in for the process of interest.)

Assay [2] has as its target T2, human TLR9 (Homo sapiens, UniProt Q9NR96).
T2 construct: host or cells: HEK-Blue cells (HEK293-derived reporter line)
T2 sequence (Q9NR96 26-1032): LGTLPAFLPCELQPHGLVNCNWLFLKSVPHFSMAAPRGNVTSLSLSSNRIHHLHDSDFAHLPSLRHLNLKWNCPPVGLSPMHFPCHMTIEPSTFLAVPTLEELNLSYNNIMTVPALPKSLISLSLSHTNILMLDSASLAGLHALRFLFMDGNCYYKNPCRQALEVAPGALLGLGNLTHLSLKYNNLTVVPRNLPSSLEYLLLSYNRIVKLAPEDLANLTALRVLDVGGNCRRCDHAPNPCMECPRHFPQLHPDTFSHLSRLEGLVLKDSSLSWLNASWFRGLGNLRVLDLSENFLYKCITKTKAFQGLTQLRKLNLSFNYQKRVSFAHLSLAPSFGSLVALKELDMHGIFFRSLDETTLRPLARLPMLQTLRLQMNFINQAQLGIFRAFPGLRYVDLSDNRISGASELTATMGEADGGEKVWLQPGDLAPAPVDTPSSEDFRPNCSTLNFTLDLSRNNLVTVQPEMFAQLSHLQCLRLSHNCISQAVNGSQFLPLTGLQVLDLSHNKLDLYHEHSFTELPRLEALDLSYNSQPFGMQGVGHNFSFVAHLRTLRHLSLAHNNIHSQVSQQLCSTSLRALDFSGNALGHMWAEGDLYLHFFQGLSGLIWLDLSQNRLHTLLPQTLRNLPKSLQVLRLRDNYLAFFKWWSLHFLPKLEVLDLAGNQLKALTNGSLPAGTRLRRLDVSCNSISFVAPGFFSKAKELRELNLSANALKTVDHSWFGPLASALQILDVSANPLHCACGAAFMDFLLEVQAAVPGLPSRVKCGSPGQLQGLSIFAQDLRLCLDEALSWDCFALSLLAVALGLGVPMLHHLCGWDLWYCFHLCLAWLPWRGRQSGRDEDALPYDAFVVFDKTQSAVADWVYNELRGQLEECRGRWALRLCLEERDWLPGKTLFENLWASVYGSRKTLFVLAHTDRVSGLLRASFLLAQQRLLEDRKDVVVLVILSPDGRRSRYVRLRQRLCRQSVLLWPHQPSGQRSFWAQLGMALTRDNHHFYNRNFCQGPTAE
In words: TLR9 inhibition reporter assay (HEK-Blue cells, SEAP reporter, ODN2006 stimulation). To be noted: HEK-Blue cells overexpressing human TLR9, SEAP reporter, ODN2006 5 nM. A digest of the protocol:
as §1

Assay [3] has as its target T3, human TLR8 (Homo sapiens, UniProt Q9NR97).
T3 construct: host or cells: HEK-Blue cells (HEK293-derived reporter line)
T3 sequence (Q9NR97 27-1041): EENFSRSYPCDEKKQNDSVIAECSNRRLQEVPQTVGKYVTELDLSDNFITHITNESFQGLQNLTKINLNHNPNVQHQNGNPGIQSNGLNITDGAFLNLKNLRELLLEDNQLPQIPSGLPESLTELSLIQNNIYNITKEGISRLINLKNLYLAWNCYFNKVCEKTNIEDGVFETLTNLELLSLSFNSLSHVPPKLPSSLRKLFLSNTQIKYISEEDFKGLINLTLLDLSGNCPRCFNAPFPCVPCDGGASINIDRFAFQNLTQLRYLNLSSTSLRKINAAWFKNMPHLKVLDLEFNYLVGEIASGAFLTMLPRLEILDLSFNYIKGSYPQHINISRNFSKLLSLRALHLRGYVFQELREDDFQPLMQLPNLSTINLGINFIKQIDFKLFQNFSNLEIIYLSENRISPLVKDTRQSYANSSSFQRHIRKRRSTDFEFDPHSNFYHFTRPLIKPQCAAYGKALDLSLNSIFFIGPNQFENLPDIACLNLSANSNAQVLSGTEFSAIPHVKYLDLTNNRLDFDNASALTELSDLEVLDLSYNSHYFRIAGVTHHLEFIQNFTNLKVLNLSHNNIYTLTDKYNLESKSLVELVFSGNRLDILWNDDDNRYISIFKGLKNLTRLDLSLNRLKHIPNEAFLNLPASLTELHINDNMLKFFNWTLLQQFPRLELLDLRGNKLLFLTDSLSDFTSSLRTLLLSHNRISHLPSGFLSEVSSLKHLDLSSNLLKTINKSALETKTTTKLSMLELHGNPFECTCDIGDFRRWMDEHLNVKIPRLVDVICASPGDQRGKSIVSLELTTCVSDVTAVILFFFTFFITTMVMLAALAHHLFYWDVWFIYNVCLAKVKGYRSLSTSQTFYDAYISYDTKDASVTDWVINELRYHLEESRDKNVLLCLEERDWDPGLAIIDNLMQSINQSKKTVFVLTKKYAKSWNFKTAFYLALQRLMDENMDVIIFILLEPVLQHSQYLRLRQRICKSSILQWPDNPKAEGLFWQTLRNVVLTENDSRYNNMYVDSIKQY
The experiment in a line: TLR8 inhibition reporter assay (HEK-Blue cells, SEAP reporter, R848 stimulation). To be noted: HEK-Blue cells overexpressing human TLR8, SEAP reporter, R848 15.9 μM. In a few lines: as §1

Each structure is given as a SMILES string.

Turning to `CC(C)c1c(-c2cnc3ccnn3c2)[nH]c2ccc(C3CCN(C(=O)[C@@H]4NCC[C@H]4O)CC3)cc12` [Example 513, ((2R,3R)-3-hydroxypyrrolidin-2-yl)(4-(3-isopropyl-2-(pyrazolo[1,5-a]pyrimidin-6-yl)-1H-indol-5-yl)piperidin-1-yl)methanone], the IC50 in assay [1] is 1000 to 50000 nM; in assay [2], 1000 to 50000 nM; in assay [3], above 3130 nM.
`CC(C)c1c(-c2cccn3ncnc23)[nH]c2ccc(C3CCN(C(=O)CN(C)C)CC3)cc12` [Example 514, 1-(4-(2-([1,2,4]triazolo[1,5-a]pyridin-8-yl)-3-isopropyl-1H-indol-5-yl)piperidin-1-yl)-2-(dimethylamino)ethan-1-one]: the IC50 lay within 100 to 1000 nM in assay [1], 1000 to 50000 nM in assay [2] and 100 to 1000 nM in assay [3].
`Cc1nc2c(-c3[nH]c4ccc(C5CCN(C(=O)CN(C)C)CC5)cc4c3C(C)C)ccc(C)n2n1` [Example 515, 1-(4-(2-(2,5-dimethyl-[1,2,4]triazolo[1,5-a]pyridin-8-yl)-3-isopropyl-1H-indol-5-yl)piperidin-1-yl)-2-(dimethylamino)ethan-1-one]: the figures for the half-inhibitory concentration (IC50) in assay [1], in assay [2] and in assay [3] were 1000 to 50000 nM, 1000 to 50000 nM and 100 to 1000 nM, respectively.
As to `Cc1ccc(-c2[nH]c3ccc(C4CCN(C(=O)CN(C)C)CC4)cc3c2C(C)C)c2ncnn12` [Example 516, 2-(dimethylamino)-1-(4-(3-isopropyl-2-(5-methyl-[1,2,4]triazolo[1,5-a]pyridin-8-yl)-1H-indol-5-yl)piperidin-1-yl)ethan-1-one], the IC50 in assay [1] is below 100 nM; in assay [2], 1000 to 50000 nM; in assay [3], below 100 nM.
For the compound `CN(C)CC(=O)N1CCC(c2ccc3[nH]c(-c4ccnc5[nH]ncc45)c(CC(F)F)c3c2)CC1` [Example 517, 1-(4-(3-(2,2-difluoroethyl)-2-(1H-pyrazolo[3,4-b]pyridin-4-yl)-1H-indol-5-yl)piperidin-1-yl)-2-(dimethylamino)ethan-1-one], the IC50 is 100 to 1000 nM in assay [1], 100 to 1000 nM in assay [2] and below 100 nM in assay [3].
With `Cc1cc(-c2[nH]c3ccc(C4CCN(C(=O)CN(C)C)CC4)cc3c2C(C)C)cc2nccnc12` [Example 518, 2-(dimethylamino)-1-(4-(3-isopropyl-2-(8-methylquinoxalin-6-yl)-1H-indol-5-yl)piperidin-1-yl)ethan-1-one], the IC50 in assay [1] was below 100 nM; in assay [2] it was 1000 to 50000 nM; in assay [3], below 100 nM.
For the compound `CCc1c(-c2cccc3c2cnn3C)[nH]c2ccc(C3CCN(C(=O)CN[C@H]4CC[C@@H](N)CC4)CC3)cc12` [Example 519, 2-(((1s,4s)-4-aminocyclohexyl)amino)-1-(4-(3-ethyl-2-(1-methyl-1H-indazol-4-yl)-1H-indol-5-yl)piperidin-1-yl)ethan-1-one], the IC50 is above 50000 nM in assay [1], 1000 to 50000 nM in assay [2] and above 50000 nM in assay [3].
Regarding `CCc1c(-c2cccc3c2cnn3C)[nH]c2ccc(C3CCN(C(=O)CN(C)C)CC3)cc12` [Example 520, 2-(dimethylamino)-1-(4-(3-ethyl-2-(1-methyl-1H-indazol-4-yl)-1H-indol-5-yl)piperidin-1-yl)ethan-1-one], the IC50 in assay [1] is above 50000 nM; in assay [2], 1000 to 50000 nM; in assay [3] it was above 50000 nM.
Regarding `Cc1cnc2ccc(-c3[nH]c4ccc(C5CCN(C(=O)CN(C)C)CC5)cc4c3C(C)C)cn12` [Example 522, 2-(dimethylamino)-1-(4-(3-isopropyl-2-(3-methylimidazo[1,2-a]pyridin-6-yl)-1H-indol-5-yl)piperidin-1-yl)ethan-1-one], the IC50 in assay [1], in assay [2] and in assay [3] was 100 to 1000 nM in each case.
Regarding `Cc1cn2cc(-c3[nH]c4ccc(C5CCN(C(=O)CN(C)C)CC5)cc4c3C(C)C)ccc2n1` [Example 523, 2-(dimethylamino)-1-(4-(3-isopropyl-2-(2-methylimidazo [1,2-a]pyridin-6-yl)-1H-indol-5-yl)piperidin-1-yl)ethan-1-one], the IC50 in assay [1] is below 100 nM; in assay [2], 100 to 1000 nM; in assay [3], 100 to 1000 nM.
As to `Cc1cc2cc(-c3[nH]c4ccc(C5CCN(C(=O)CN(C)C)CC5)cc4c3C(C)C)cc(CC(C)C)n2n1` [Example 524, 2-(dimethylamino)-1-(4-(2-(7-isobutyl-2-methylpyrazolo[1,5-a]pyridin-5-yl)-3-isopropyl-1H-indol-5-yl)piperidin-1-yl)ethan-1-one], the IC50 in assay [1] is above 3130 nM; in assay [2] it was 1000 to 50000 nM; in assay [3], above 3130 nM.
For the compound `CC(C)c1c(-c2cnc3cn[nH]c3c2)[nH]c2ccc(C3CCN(C(=O)CN(C)C)CC3)cc12` [Example 526, 2-(dimethylamino)-1-(4-(3-isopropyl-2-(1H-pyrazolo[4,3-b]pyridin-6-yl)-1H-indol-5-yl)piperidin-1-yl)ethan-1-one], the IC50 is below 100 nM in assay [1], 1000 to 50000 nM in assay [2] and below 100 nM in assay [3].

Values taken from US11739098B2 (BRISTOL-MYERS SQUIBB COMPANY, priority 2017, dated 2023).
